Type in all cases: biochemical
In experiment [1] the target is 320 wild-type protein kinases (Homo sapiens, UniProt P49759). Conditions: singlicate. From the text:
(§1) Table S4. Profiling of two compounds at two concentrations against 320 wild-type protein kinases; singlicate measurement; Residual activities (% of control).

In experiment [2] the target is T1, 320 wild-type protein kinases (Homo sapiens, UniProt Q9HBY8).
T1 sequence (Q9HBY8 1-367): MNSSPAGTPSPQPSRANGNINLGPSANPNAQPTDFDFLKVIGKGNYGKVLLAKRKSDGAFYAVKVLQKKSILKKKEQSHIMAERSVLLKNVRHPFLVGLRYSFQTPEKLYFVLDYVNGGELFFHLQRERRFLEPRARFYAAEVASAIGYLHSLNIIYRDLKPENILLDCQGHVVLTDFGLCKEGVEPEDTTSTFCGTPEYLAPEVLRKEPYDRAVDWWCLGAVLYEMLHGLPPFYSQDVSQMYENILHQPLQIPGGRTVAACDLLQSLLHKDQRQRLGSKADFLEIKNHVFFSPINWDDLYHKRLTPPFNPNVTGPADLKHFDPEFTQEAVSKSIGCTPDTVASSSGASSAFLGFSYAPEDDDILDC
The note with it: kinase SGK2, singlicate.
Source text: as §1

The target in experiment [3] is 320 wild-type protein kinases (Homo sapiens, UniProt P49760). The note with it: singlicate.
Chain of 320 wild-type protein kinases (Homo sapiens, UniProt P49760) (P49760 whole entry): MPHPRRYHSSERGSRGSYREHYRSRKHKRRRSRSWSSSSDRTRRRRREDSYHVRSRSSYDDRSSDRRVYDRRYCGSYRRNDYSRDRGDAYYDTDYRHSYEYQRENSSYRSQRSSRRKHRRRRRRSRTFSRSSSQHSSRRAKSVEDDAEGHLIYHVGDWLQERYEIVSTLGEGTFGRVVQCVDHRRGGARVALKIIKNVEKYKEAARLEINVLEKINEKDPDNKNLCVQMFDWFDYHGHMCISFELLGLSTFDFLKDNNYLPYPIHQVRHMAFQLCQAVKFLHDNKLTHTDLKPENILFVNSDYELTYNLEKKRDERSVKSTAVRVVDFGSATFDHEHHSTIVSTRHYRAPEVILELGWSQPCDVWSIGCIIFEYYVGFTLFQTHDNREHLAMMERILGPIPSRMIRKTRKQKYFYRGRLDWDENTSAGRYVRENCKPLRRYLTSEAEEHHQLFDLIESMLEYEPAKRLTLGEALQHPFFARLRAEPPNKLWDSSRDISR
Source text: as §1

Experiment [4] has as its target T2, 320 wild-type protein kinases (Homo sapiens, UniProt P43403).
T2 sequence (P43403 1-619): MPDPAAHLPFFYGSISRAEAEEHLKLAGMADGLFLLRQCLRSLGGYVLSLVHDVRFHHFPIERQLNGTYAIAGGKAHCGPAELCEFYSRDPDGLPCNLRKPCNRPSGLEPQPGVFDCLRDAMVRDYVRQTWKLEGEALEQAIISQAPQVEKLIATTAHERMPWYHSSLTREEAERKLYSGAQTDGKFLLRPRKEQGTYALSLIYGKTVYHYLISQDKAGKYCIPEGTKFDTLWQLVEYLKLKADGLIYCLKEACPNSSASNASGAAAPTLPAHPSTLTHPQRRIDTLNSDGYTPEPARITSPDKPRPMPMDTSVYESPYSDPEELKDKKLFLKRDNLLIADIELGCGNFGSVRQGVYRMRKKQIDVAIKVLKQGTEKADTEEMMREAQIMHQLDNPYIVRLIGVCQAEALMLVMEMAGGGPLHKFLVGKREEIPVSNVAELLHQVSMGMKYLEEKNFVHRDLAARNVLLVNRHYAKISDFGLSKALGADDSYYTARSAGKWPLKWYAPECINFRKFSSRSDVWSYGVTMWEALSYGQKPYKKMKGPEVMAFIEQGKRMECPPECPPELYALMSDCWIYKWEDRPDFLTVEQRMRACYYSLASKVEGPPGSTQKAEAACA
Conditions: kinase ZAP70, singlicate.
Source text: as §1

Experiment [5] has as its target T3, 320 wild-type protein kinases (Homo sapiens, UniProt Q09013).
T3 sequence (Q09013 1-629): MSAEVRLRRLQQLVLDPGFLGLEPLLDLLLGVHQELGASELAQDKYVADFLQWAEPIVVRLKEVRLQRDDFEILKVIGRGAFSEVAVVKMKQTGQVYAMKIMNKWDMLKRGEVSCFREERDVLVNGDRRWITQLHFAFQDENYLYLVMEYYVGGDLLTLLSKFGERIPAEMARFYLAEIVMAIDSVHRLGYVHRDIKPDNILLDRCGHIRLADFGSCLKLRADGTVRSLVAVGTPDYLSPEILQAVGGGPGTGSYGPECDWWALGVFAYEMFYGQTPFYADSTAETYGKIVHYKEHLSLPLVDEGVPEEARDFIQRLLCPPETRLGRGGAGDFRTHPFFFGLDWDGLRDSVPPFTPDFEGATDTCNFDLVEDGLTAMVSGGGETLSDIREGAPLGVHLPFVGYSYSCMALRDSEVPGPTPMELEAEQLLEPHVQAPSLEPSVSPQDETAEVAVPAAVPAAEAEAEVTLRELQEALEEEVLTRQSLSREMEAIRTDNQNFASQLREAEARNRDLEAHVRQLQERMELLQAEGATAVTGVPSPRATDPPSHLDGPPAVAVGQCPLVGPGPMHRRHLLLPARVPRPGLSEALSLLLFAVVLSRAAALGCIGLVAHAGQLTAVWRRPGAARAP
Conditions: DMPK, singlicate.
Source text: as §1

In experiment [6] the target is T4, 320 wild-type protein kinases (Homo sapiens, UniProt Q99759).
T4 sequence (Q99759 1-626): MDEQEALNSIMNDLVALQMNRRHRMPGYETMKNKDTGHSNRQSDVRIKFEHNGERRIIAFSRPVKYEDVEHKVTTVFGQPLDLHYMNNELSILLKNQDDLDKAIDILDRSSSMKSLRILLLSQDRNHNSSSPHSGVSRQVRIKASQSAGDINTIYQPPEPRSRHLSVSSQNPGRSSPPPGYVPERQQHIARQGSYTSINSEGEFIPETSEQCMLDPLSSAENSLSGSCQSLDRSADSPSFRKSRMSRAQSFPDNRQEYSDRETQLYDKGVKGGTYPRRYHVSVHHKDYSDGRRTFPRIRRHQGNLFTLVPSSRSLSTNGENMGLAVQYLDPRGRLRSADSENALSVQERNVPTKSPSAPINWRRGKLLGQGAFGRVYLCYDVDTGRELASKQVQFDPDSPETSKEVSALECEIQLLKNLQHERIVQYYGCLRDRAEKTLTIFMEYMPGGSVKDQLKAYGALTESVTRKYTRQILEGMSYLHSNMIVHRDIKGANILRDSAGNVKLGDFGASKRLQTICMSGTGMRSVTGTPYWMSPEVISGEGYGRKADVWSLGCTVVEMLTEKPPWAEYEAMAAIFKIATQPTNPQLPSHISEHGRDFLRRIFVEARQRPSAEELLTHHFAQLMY
Conditions: singlicate.
Source text: as §1

The structures appear in SMILES notation. Like-named read-outs stand apart in the source and are kept apart here.

Chain of 320 wild-type protein kinases (Homo sapiens, UniProt P49759) (P49759 whole entry): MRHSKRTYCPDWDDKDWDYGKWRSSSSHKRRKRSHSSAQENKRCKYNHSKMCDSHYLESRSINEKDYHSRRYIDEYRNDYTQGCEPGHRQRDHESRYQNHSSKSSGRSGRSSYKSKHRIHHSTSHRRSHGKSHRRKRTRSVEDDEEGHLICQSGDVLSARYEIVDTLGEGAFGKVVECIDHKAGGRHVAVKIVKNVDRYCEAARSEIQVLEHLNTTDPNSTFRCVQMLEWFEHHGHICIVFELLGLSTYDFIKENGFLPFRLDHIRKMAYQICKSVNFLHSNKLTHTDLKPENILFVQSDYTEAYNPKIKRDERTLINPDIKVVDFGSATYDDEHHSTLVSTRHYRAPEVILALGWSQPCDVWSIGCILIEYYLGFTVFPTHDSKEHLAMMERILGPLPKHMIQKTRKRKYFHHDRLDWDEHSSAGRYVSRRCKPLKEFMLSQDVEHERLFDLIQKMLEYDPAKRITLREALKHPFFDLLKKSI

In the case of `C#Cc1cc(Nc2ncnc3cc(OC)c(OC)cc23)ccc1Cl` [Compound 45], the Residual activity in experiment [1] (CLK1, 1.0E-06 M) was 79 % of control; in experiment [1] (CLK1, 1.0E-07 M), 102 % of control; in experiment [3] (CLK2, 1.0E-06 M), 105 % of control; in experiment [3] (CLK2, 1.0E-07 M), 119 % of control; in experiment [5] (1.0E-06 M) it was 104 % of control; in experiment [5] (1.0E-07 M), 103 % of control. The Residual activity in experiment [6] (MEKK3, 1.0E-06 M) is reported as 117 % of control; in experiment [6] (MEKK3, 1.0E-07 M), 115 % of control. The “Residual activity, SGK2” value in experiment [2] (assay conc. 1.0E-06 M) was 98 % of control; in experiment [2] (assay conc. 1.0E-07 M), 94 % of control. The “Residual activity, ZAP70” value in experiment [4] (assay conc. 1.0E-06 M) is reported as 104 % of control; in experiment [4] (assay conc. 1.0E-07 M), 100 % of control.

`C#Cc1cc(Nc2ncnc3cc(I)ccc23)ccc1Cl` [Compound 41]: the Residual activity in experiment [1] (CLK1, 1.0E-06 M) was 89 % of control; in experiment [1] (CLK1, 1.0E-07 M), 89 % of control; in experiment [3] (CLK2, 1.0E-06 M) it was 106 % of control; in experiment [3] (CLK2, 1.0E-07 M) it was 122 % of control; in experiment [5] (1.0E-06 M), 106 % of control; in experiment [5] (1.0E-07 M), 121 % of control. Besides, the Residual activity in experiment [6] (MEKK3, 1.0E-06 M) is reported as 107 % of control; in experiment [6] (MEKK3, 1.0E-07 M), 106 % of control. The “Residual activity, SGK2” value is on record as 86 % of control in experiment [2] (assay conc. 1.0E-06 M) and 101 % of control in experiment [2] (assay conc. 1.0E-07 M). Further, the “Residual activity, ZAP70” value in experiment [4] (assay conc. 1.0E-06 M) was 103 % of control; in experiment [4] (assay conc. 1.0E-07 M) it was 111 % of control.

The values above are taken from article PMC9329436, “Optimization of the 4-anilinoquin(az)oline scaffold as epidermal growth factor receptor (EGFR) inhibitors for chordoma utilizing a toxicology profiling assay platform” (Scientific Reports, 2022).
